The record followed here is publication PMC10186366 (ACS Pharmacology & Translational Science, 2023).

In experiment [1] the test system is PC43-10 CHO cells (expresses only human RFC). Briefly: Cell proliferation assay, PC43-10 CHO subline. In kind it is cell-based, Chinese hamster. The settings on record: 96 h, up to 1000 nM, 25 nM leucovorin, mean (standard error); for IC50: Homo sapiens, PC43-10. The source says: (§1) We used a unique panel of engineered Chinese hamster ovary (CHO) sublines derived from a transporter-null MTXRIIOua^R2-4 CHO subline (R2) and designed to individually express human FRα (RT16), FRβ (D4), RFC (PC43-10), or PCFT (R2/PCFT).[39]−[42] As the CHO sublines are isogenic and differ only in the presence or absence of the human folate transporters, differences in the extent of inhibition of cell proliferation between the cell lines upon treatment with the various compounds provide a robust readout of transport specificities.[25],[26],[29],[30],[43]
(§2) The CHO sublines were treated for 96 h with a range of drug concentrations up to 1000 nM; cell viabilities were measured with a fluorescence assay.[26] […] As a control, we used transporter-null R2 cells.[42] To extend studies to human tumor cells, we also performed experiments in RFC-, PCFT-, and FRα-expressing KB tumor cells.[44] To confirm the contribution of FR-mediated uptake to antitumor activity, for KB cells, we added 200 nM folic acid, which inhibits FR uptake by direct competition without effects on either RFC or PCFT.[25],[26],[28]−[30],[43]
(§3) The MTXRIIOua^R2-4 RFC-, PCFT-, and FRα-null Chinese hamster ovary (CHO) cell line (R2) was a gift from Dr. Wayne Flintoff (University of Western Ontario).[40],[42] Isogenic CHO cell lines were subsequently derived from R2 cells by transfection with RFC, PCFT, or FRα cDNAs to generate PC43-10 (expresses only human RFC), R2/PCFT4 (expresses only human PCFT), RT16 (expresses only human FRα), and D4 (expresses only human FRβ).[25],[26],[39]
(§4) The CHO sublines were cultured in α-minimal essential medium (α-MEM) supplemented with 100 U/mL penicillin/100 μg/mL streptomycin, 2 mM L-glutamine, and 10% bovine calf serum (Sigma-Aldrich). For the PC43-10, R2/PCFT4, RT16, and D4 sublines, 1.5 mg/mL G418 was also added. Seventy-two hours prior to in vitro proliferation assays (below), RT16 and D4 CHO cells were grown in folate-free RPMI with dialyzed fetal bovine serum (DFBS) (Invitrogen) supplemented with 100 U/mL penicillin/[…] streptomycin and 2 mM L-glutamine. FRα-expressing KB nasopharyngeal carcinoma cells were acquired from the American Type Culture Collection (Manassas, VA); cells were grown in complete folate-free RPMI 1640 supplemented with 10% fetal bovine serum, 100 U/mL penicillin/100 μg/mL streptomycin, and 2 mM L-glutamine. Cell lines were authenticated by STR analysis (Genetica DNA Laboratories, Burlington, NC) and tested for Mycoplasma by PCR (Venor GeM Mycoplasma Detection Kit, Sigma). Frozen stocks were generated from authenticated Mycoplasma-free cultures.
(§5) Cell proliferation assays used CHO and KB cells cultured in folate-free-RPMI 1640 media with 10% DFBS, 2 mM L-glutamine, and 100 U/mL penicillin/100 μg/mL streptomycin supplemented with 2 nM (KB, RT16, D4) or 25 nM (R2, PC43-10, R2/PCFT4) leucovorin.[25],[26],[30] Parallel incubations with 200 nM folic acid were performed in viability assays to confirm FR-mediated drug uptake. Cells were plated in 96-well dishes at 2500–5000 cells/well in 200 μL media and treated with a range of C1 inhibitors spanning 0 to 1 μM. Cells were treated at 37 ° C with 5% CO2, and numbers were assayed after 96 h using CellTiter-blue (Promega, Madison, WI) and a fluorescence plate reader.[25],[26]

Experiment [2] deals with R2 (MTXRIIOuaR2-4) RFC-, PCFT-, and FRα-null CHO cells. Briefly: Cell proliferation assay, transporter-null R2 CHO subline. It counts as cell-based, Chinese hamster. The conditions noted are these: Cricetulus griseus, transporter-null control cells, 96 h, up to 1000 nM, mean (standard error).
Source text: as §1, §2, §3, §4, §5

Another experiment concerns KB tumor cells. Briefly: Metabolite rescue of growth inhibition in KB cells. In kind it is cell-based, human. The conditions noted are these: glycine- and nucleoside-free media; for Protection from growth inhibition by adenosine: inhibitor up to 1000 nM, 60 μM adenosine alone; for Protection from growth inhibition by glycine plus adenosine over adenosine alone: 160 μM glycine combined with 60 μM adenosine. As to the method:
Upper panel: schematic of C1 metabolism. Undefined abbreviations include the following: DHF, dihydrofolate; THF, tetrahydrofolate; FAICAR, formyl 5-aminoimidazole-4-carboxamide ribonucleotide; fGAR, formyl GAR; and 5,10-meTHF, 5,10-methylene tetrahydrofolate. Lower panels: KB cells were plated (4000 cells/well) in glycine-, nucleoside-, and folate-free RPMI 1640 medium with 10% dialyzed fetal bovine serum, antibiotics, L-glutamine, and 2 nM leucovorin over a range of inhibitor concentrations in the presence of adenosine (60 μM), glycine (160 μM), thymidine (10 μM), or AICA (320 μM). As shown, combined glycine plus adenosine or AICA was also tested to identify potential mitochondrial C1 targeting.[45] Cell proliferation was assayed with a fluorescence-based assay.[26] Data are representative of at least triplicate experiments (presented as mean values plus/minus standard errors). Methods are described in the Experimental Section, and additional metabolite rescue data for 4, 5, and 8–11 are presented in Figure S3 (Supporting Information).
Metabolite “rescue” experiments have been used to identify targeted pathways for novel antifolate inhibitors including de novo purine nucleotide and thymidylate biosynthesis (protection by adenosine and thymidine, respectively)[25]−[27],[29],[30],[32],[43],[45]−[47] and mitochondrial C1 metabolism (protection by glycine and adenosine).[45] To gain insights into the targeted pathways that contribute to the loss of KB tumor cell proliferation upon treatment with compounds 3–9, we tested the reversal of growth inhibition by the active compounds in Table 1 (up to 1000 nM) in glycine- and nucleoside-free media in the presence of 60 μM adenosine, 160 μM glycine, or 10 μM thymidine alone or with combined adenosine and glycine. The use of glycine- and nucleoside-free media for these experiments expands the ability to identify causal intracellular targets (including previously unrecognized mitochondrial targets[45]) that can be confirmed by targeted metabolomics and direct in vitro assays (below). […] The results of these experiments are shown in Figure 7 (lower panel) and in Figure S3 (Supporting Information).
AICA circumvents the first folate-dependent enzyme, GARFTase, and is directly metabolized to ZMP (AICAR), thus providing a substrate for AICARFTase[26],[32],[46] (Figure 7, upper panel). This distinguishes primary inhibition at GARFTase (protection by AICA) versus AICARFTase (incomplete protection by AICA) for inhibitors of de novo purine biosynthesis.[25]
Additional proliferation assays with metabolite rescue used KB cells to identify the targeted pathway and enzyme(s) in folate- and glycine-free RPMI1640, DFBS, 2 mM glutamine, and antibiotics. […] These assays have been previously described.[25],[26],[45]

A word on the IC50: it is the midpoint of a concentration-inhibition curve. For `Nc1nc2sc(CCCc3csc(C(=O)N[C@@H](CCC(=O)O)C(=O)O)c3F)cc2c(=O)[nH]1` [Compound 8, (4-(3-(2-Amino-4-oxo-3,4-dihydrothieno[2,3-d]pyrimidin-6-yl)propyl)-3-fluorothiophene-2-carbonyl)-L-glutamic Acid], in experiment [1], the “IC50 RFC PC43-10” value was “slight inhibition” and the half-maximal inhibitory concentration (IC50) was found to be 560 nM. The IC50 in experiment [2] is over 1000 nM. Besides, the “Protection from growth inhibition by adenosine” value in the experiment with KB tumor cells was “completely protective”.
As for `Nc1nc2sc(CCCCc3ccc(C(=O)N[C@@H](CCC(=O)O)C(=O)O)nc3)cc2c(=O)[nH]1` [Compound 4, (5-(4-(2-Amino-4-oxo-3,4-dihydrothieno[2,3-d]pyrimidin-6-yl)butyl)picolinoyl)-L-glutamic Acid], the concentration for half-maximal inhibition (IC50) in experiment [1] and in experiment [2] was over 1000 nM each time. Also, the “Protection from growth inhibition by glycine plus adenosine over adenosine alone” value in the experiment on KB tumor cells was “slightly and reproducibly enhanced”. In the experiment on KB tumor cells, the “Protection from growth inhibition by adenosine” value was “substantially protective”.
On to `Nc1nc2sc(CCCc3ccc(C(=O)N[C@@H](CCC(=O)O)C(=O)O)cc3)cc2c(=O)[nH]1` [Compound 1], for which the “Protection from growth inhibition by glycine plus adenosine over adenosine alone” value in the experiment with KB tumor cells is “substantially enhanced and was complete”.
As for `Nc1nc2sc(CCCc3ccc(C(=O)N[C@@H](CCC(=O)O)C(=O)O)c(F)c3)cc2c(=O)[nH]1` [Compound 6, (4-(3-(2-Amino-4-oxo-3,4-dihydrothieno[2,3-d]pyrimidin-6-yl)propyl)-2-fluorobenzoyl)-L-glutamic Acid], the IC50 in experiment [1] and in experiment [2] was over 1000 nM each time. The “Protection from growth inhibition by glycine plus adenosine over adenosine alone” value with KB tumor cells was “substantially enhanced and was complete”.
Consider `Nc1nc2sc(CCCCc3cccc(C(=O)N[C@@H](CCC(=O)O)C(=O)O)n3)cc2c(=O)[nH]1` [Compound 3, (6-(4-(2-Amino-4-oxo-3,4-dihydrothieno[2,3-d]pyrimidin-6-yl)butyl)picolinoyl)-L-glutamic Acid], for which the IC50 in experiment [1] and in experiment [2] was over 1000 nM in each case.
Take `Nc1nc2sc(CCCCc3cnc(C(=O)N[C@@H](CCC(=O)O)C(=O)O)c(F)c3)cc2c(=O)[nH]1` [Compound 5, (5-(4-(2-Amino-4-oxo-3,4-dihydrothieno[2,3-d]pyrimidin-6-yl)butyl)-3-fluoropicolinoyl)-L-glutamic Acid]: the 50% inhibitory concentration (IC50) in experiment [1] and in experiment [2] was over 1000 nM in each case. In the experiment with KB tumor cells, the “Protection from growth inhibition by adenosine” value was “completely protective”.
In turn, `Nc1nc2sc(CCCCc3ccc(C(=O)N[C@@H](CCC(=O)O)C(=O)O)c(F)c3)cc2c(=O)[nH]1` [Compound 7, (4-(4-(2-Amino-4-oxo-3,4-dihydrothieno[2,3-d]pyrimidin-6-yl)butyl)-2-fluorobenzoyl)-L-glutamic Acid] came in with an IC50 in experiment [1] of over 1000 nM. This molecule yielded an IC50 in experiment [2] of over 1000 nM. For the same molecule, in the experiment with KB tumor cells, the “Protection from growth inhibition by glycine plus adenosine over adenosine alone” value is “slightly and reproducibly enhanced”; the “Protection from growth inhibition by adenosine” value is “substantially protective”.
`Nc1nc2sc(CCCCc3csc(C(=O)N[C@@H](CCC(=O)O)C(=O)O)c3F)cc2c(=O)[nH]1` [Compound 9, (4-(4-(2-Amino-4-oxo-3,4-dihydrothieno[2,3-d]pyrimidin-6-yl)butyl)-3-fluorothiophene-2-carbonyl)-L-glutamic Acid] came in with an IC50 in experiment [1] of over 1000 nM. Further, in experiment [2], the concentration for half-maximal inhibition (IC50) is over 1000 nM. In the experiment with KB tumor cells, the “Protection from growth inhibition by glycine plus adenosine over adenosine alone” value is “slightly and reproducibly enhanced”; the “Protection from growth inhibition by adenosine” value is “substantially protective”.
